{"source": "patent US20080058213A1", "about": "“Benzoxazole Compounds” (priority 2004, published 2008)", "type_in_all_cases": "in vivo", "key": {"southern crabgrass": {"tested_on": "southern crabgrass", "assay": "Foliage treatment test for upland field (Test Example 3): southern crabgrass", "conditions": "foliage treatment at 1.0-2.0 leaf stage of southern crabgrass, examined after 3 weeks", "how_it_was_run": "(§1)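 Weeds were sown in compost-soil pots in a 25° C glasshouse. Wettable-powder formulations, diluted in water to the prescribed active-ingredient dose, were sprayed at 15 liters per are when southern crabgrass reached the 1.0-2.0 leaf stage. After 3 weeks, growth inhibition versus untreated control was scored 0 (under 20%) to 5 (100%).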"}, "[1]": {"tested_on": "slender amaranth (Amaranthus viridis)", "assay": "Soil treatment test for upland field (Test Example 2): slender amaranth", "conditions": "soil treatment before germination, examined after 3 weeks", "how_it_was_run": "(§2)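 Upland soil in 1/3,000 are pots was seeded and covered; compounds formulated as wettable powders, diluted with water to the prescribed active-ingredient dose, were sprayed uniformly onto the soil surface pre-emergence at 15 liters per are. After 3 weeks in a glasshouse at 25° C average, growth inhibition versus untreated control was graded 0–5.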"}, "common purslane": {"tested_on": "common purslane", "assay": "Foliage treatment test for upland field (Test Example 3): common purslane", "conditions": "foliage treatment at 1.0-2.0 leaf stage of southern crabgrass, examined after 3 weeks", "how_it_was_run": "as §1"}, "[2]": {"tested_on": "southern crabgrass (Digitaria ciliaris)", "assay": "Soil treatment test for upland field (Test Example 2): southern crabgrass", "conditions": "soil treatment before germination, examined after 3 weeks", "how_it_was_run": "as §2"}, "[3]": {"tested_on": "velvetleaf (Abutilon theophrasti)", "assay": "Soil treatment test for upland field (Test Example 2): velvetleaf", "conditions": "soil treatment before germination, examined after 3 weeks", "how_it_was_run": "as §2"}, "soybean [4]": {"tested_on": "soybean", "assay": "Soil treatment test for upland field (Test Example 2): phytotoxicity to soybean", "conditions": "soil treatment before germination, examined after 3 weeks"}, "rice plant": {"tested_on": "rice plant", "assay": "Weed control test for paddy field (Test Example 1): phytotoxicity to rice plant", "conditions": "paddy pots, treated at 1.0 leaf stage of barnyard grass, examined after 3 weeks", "text": "(§3) Paddy field soil was filled in 1/10,000 are pots, kneaded with adequate amounts of water and chemical fertilizer, seeded with barnyard grass (Echinochloa crusgalli), Monochoria (Monochoria vaginalis), Japanese bulrush (Scirpus juncoides) and flat sedge (Cyperus serotinus), and further transplanted with 2.0 leaf stage of rice plant. The pots were maintained under the water-filled condition to a depth of 3 cm.\n(§4) Wettable powders containing the compounds (1) as identified in Table 1, which were formulated following Production Example 2, were diluted with adequate amount of water and applied to the pots dropwise with pippet at a prescribed dose of the active ingredients per are, at 1.0 leaf stage of the barnyard grass.\n(§5) After placing the pots in a glasshouse which was controlled at an average temperature of 25° C. for 3 weeks, herbicidal effect was examined.\nEvaluation of phytotoxicity is shown in the following six grades, as compared with the condition of untreated control: • 0: normal growth • 1: little damaged • 2: low damaged • 3: medium damaged • 4: serious damaged • 5: complete killed."}, "[5]": {"tested_on": "Monochoria (Monochoria vaginalis)", "assay": "Weed control test for paddy field (Test Example 1): Monochoria", "conditions": "paddy pots, treated at 1.0 leaf stage of barnyard grass, examined after 3 weeks", "text": "as §3, §4, §5\n(§6) Evaluation of the herbicidal effect is shown in the following six grades, by comparing the condition of untreated control and growth inhibition (%): • 0: 0%-less than 20% • 1: 20%-less than 40% • 2: 40%-less than 60% • 3: 60%-less than 80% • 4: 80%-less than 100% • 5: 100%."}, "velvetleaf": {"tested_on": "velvetleaf", "assay": "Foliage treatment test for upland field (Test Example 3): velvetleaf", "conditions": "foliage treatment at 1.0-2.0 leaf stage of southern crabgrass, examined after 3 weeks", "how_it_was_run": "as §1"}, "[6]": {"tested_on": "common purslane (Portulaca oleracea)", "assay": "Soil treatment test for upland field (Test Example 2): common purslane", "conditions": "soil treatment before germination, examined after 3 weeks", "how_it_was_run": "as §2"}, "[7]": {"tested_on": "common lambsquaters (Chenopodium album)", "assay": "Soil treatment test for upland field (Test Example 2): common lambsquaters", "conditions": "soil treatment before germination, examined after 3 weeks", "how_it_was_run": "as §2"}, "wheat [8]": {"tested_on": "wheat", "assay": "Soil treatment test for upland field (Test Example 2): phytotoxicity to wheat", "conditions": "soil treatment before germination, examined after 3 weeks"}, "wheat [9]": {"tested_on": "wheat", "assay": "Foliage treatment test for upland field (Test Example 3): phytotoxicity to wheat", "conditions": "foliage treatment at 1.0-2.0 leaf stage of southern crabgrass, examined after 3 weeks", "how_it_was_run": "(§7)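 Crops sown in compost-mixed soil pots, kept in a glasshouse at 25° C. average. Effect scored after 3 weeks versus untreated control on a 0–5 scale (0 normal growth, 5 complete kill).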"}, "soybean [10]": {"tested_on": "soybean", "assay": "Foliage treatment test for upland field (Test Example 3): phytotoxicity to soybean", "conditions": "foliage treatment at 1.0-2.0 leaf stage of southern crabgrass, examined after 3 weeks", "how_it_was_run": "as §7"}, "[11]": {"tested_on": "barnyard grass (Echinochloa crusgalli)", "assay": "Weed control test for paddy field (Test Example 1): barnyard grass", "conditions": "paddy pots, treated at 1.0 leaf stage of barnyard grass, examined after 3 weeks", "text": "as §3, §4, §5, §6"}, "[12]": {"tested_on": "Japanese bulrush (Scirpus juncoides)", "assay": "Weed control test for paddy field (Test Example 1): Japanese bulrush", "conditions": "paddy pots, treated at 1.0 leaf stage of barnyard grass, examined after 3 weeks", "text": "as §3, §4, §5, §6"}, "corn [13]": {"tested_on": "corn", "assay": "Soil treatment test for upland field (Test Example 2): phytotoxicity to corn", "conditions": "soil treatment before germination, examined after 3 weeks"}, "common lambsquaters": {"tested_on": "common lambsquaters", "assay": "Foliage treatment test for upland field (Test Example 3): common lambsquaters", "conditions": "foliage treatment at 1.0-2.0 leaf stage of southern crabgrass, examined after 3 weeks", "how_it_was_run": "as §1"}, "[14]": {"tested_on": "flat sedge (Cyperus serotinus)", "assay": "Weed control test for paddy field (Test Example 1): flat sedge", "conditions": "paddy pots, treated at 1.0 leaf stage of barnyard grass, examined after 3 weeks", "text": "as §3, §4, §5, §6"}, "corn [15]": {"tested_on": "corn", "assay": "Foliage treatment test for upland field (Test Example 3): phytotoxicity to corn", "conditions": "foliage treatment at 1.0-2.0 leaf stage of southern crabgrass, examined after 3 weeks", "how_it_was_run": "as §7"}, "slender amaranth": {"tested_on": "slender amaranth", "assay": "Foliage treatment test for upland field (Test Example 3): slender amaranth", "conditions": "foliage treatment at 1.0-2.0 leaf stage of southern crabgrass, examined after 3 weeks", "how_it_was_run": "as §1"}}, "data": [{"compound": "COCC(=Cc1cccc(C(F)(F)F)c1)c1nc2cc(C(F)(F)F)ccc2o1", "note": "[Compound 52]", "values": [{"measurement": "Herbicidal Effect southern crabgrass", "setting": "southern crabgrass; dose 2.5 g ai/a", "value": "5 (100%)"}, {"measurement": "Herbicidal Effect southern crabgrass", "setting": "southern crabgrass; dose 5 g ai/a", "value": "5 (100%)"}, {"measurement": "Herbicidal Effect slender amaranth", "setting": "[1]; dose 2.5 g ai/a", "value": "5 (100%)"}, {"measurement": "Herbicidal Effect slender amaranth", "setting": "[1]; dose 5 g ai/a", "value": "5 (100%)"}, {"measurement": "Herbicidal Effect common purslane", "setting": "common purslane; dose 2.5 g ai/a", "value": "5 (100%)"}, {"measurement": "Herbicidal Effect common purslane", "setting": "common purslane; dose 5 g ai/a", "value": "5 (100%)"}, {"measurement": "Herbicidal Effect southern crabgrass", "setting": "[2]; dose 2.5 g ai/a", "value": "5 (100%)"}, {"measurement": "Herbicidal Effect southern crabgrass", "setting": "[2]; dose 5 g ai/a", "value": "5 (100%)"}, {"measurement": "Herbicidal Effect velvetleaf", "setting": "[3]; dose 2.5 g ai/a", "value": "5 (100%)"}, {"measurement": "Herbicidal Effect velvetleaf", "setting": "[3]; dose 5 g ai/a", "value": "5 (100%)"}, {"measurement": "Phytotoxicity soybean", "setting": "soybean [4]; dose 2.5 g ai/a", "value": 0}, {"measurement": "Phytotoxicity soybean", "setting": "soybean [4]; dose 5 g ai/a", "value": 1}, {"measurement": "Phytotoxicity Rice plant", "setting": "rice plant; dose 2.5 g ai/a", "value": 0}, {"measurement": "Phytotoxicity Rice plant", "setting": "rice plant; dose 5 g ai/a", "value": 1}, {"measurement": "Herbicidal Effect Monochoria vaginalis", "setting": "[5]; dose 2.5 g ai/a", "value": "5 (100%)"}, {"measurement": "Herbicidal Effect Monochoria vaginalis", "setting": "[5]; dose 5 g ai/a", "value": "5 (100%)"}, {"measurement": "Herbicidal Effect velvetleaf", "setting": "velvetleaf; dose 2.5 g ai/a", "value": "5 (100%)"}, {"measurement": "Herbicidal Effect velvetleaf", "setting": "velvetleaf; dose 5 g ai/a", "value": "5 (100%)"}, {"measurement": "Herbicidal Effect common purslane", "setting": "[6]; dose 2.5 g ai/a", "value": "5 (100%)"}, {"measurement": "Herbicidal Effect common purslane", "setting": "[6]; dose 5 g ai/a", "value": "5 (100%)"}, {"measurement": "Herbicidal Effect common lambsquaters", "setting": "[7]; dose 2.5 g ai/a", "value": "5 (100%)"}, {"measurement": "Herbicidal Effect common lambsquaters", "setting": "[7]; dose 5 g ai/a", "value": "5 (100%)"}, {"measurement": "Phytotoxicity wheat", "setting": "wheat [8]; dose 2.5 g ai/a", "value": 1}, {"measurement": "Phytotoxicity wheat", "setting": "wheat [8]; dose 5 g ai/a", "value": 1}, {"measurement": "Phytotoxicity wheat", "setting": "wheat [9]; dose 2.5 g ai/a", "value": 1}, {"measurement": "Phytotoxicity wheat", "setting": "wheat [9]; dose 5 g ai/a", "value": 1}, {"measurement": "Phytotoxicity soybean", "setting": "soybean [10]; dose 2.5 g ai/a", "value": 1}, {"measurement": "Phytotoxicity soybean", "setting": "soybean [10]; dose 5 g ai/a", "value": 2}, {"measurement": "Herbicidal Effect Barnyard grass", "setting": "[11]; dose 2.5 g ai/a", "value": "5 (100%)"}, {"measurement": "Herbicidal Effect Barnyard grass", "setting": "[11]; dose 5 g ai/a", "value": "5 (100%)"}, {"measurement": "Herbicidal Effect Japanese bulrush", "setting": "[12]; dose 2.5 g ai/a", "value": "4 (80%-less than 100%)"}, {"measurement": "Herbicidal Effect Japanese bulrush", "setting": "[12]; dose 5 g ai/a", "value": "5 (100%)"}, {"measurement": "Phytotoxicity corn", "setting": "corn [13]; dose 2.5 g ai/a", "value": 1}, {"measurement": "Phytotoxicity corn", "setting": "corn [13]; dose 5 g ai/a", "value": 1}, {"measurement": "Herbicidal Effect Common lambsquatters", "setting": "common lambsquaters; dose 2.5 g ai/a", "value": "5 (100%)"}, {"measurement": "Herbicidal Effect Common lambsquatters", "setting": "common lambsquaters; dose 5 g ai/a", "value": "5 (100%)"}, {"measurement": "Herbicidal Effect Flat sedge", "setting": "[14]; dose 2.5 g ai/a", "value": "3 (60%-less than 80%)"}, {"measurement": "Herbicidal Effect Flat sedge", "setting": "[14]; dose 5 g ai/a", "value": "4 (80%-less than 100%)"}, {"measurement": "Phytotoxicity corn", "setting": "corn [15]; dose 2.5 g ai/a", "value": 1}, {"measurement": "Phytotoxicity corn", "setting": "corn [15]; dose 5 g ai/a", "value": 1}, {"measurement": "Herbicidal Effect slender amaranth", "setting": "slender amaranth; dose 2.5 g ai/a", "value": "5 (100%)"}, {"measurement": "Herbicidal Effect slender amaranth", "setting": "slender amaranth; dose 5 g ai/a", "value": "5 (100%)"}]}]}
